Values joined by “and” are separate entries in the source; they are usually repeats but may differ in a detail not shown here. Equal entries are not always repeated. Where two headings read alike, the source gives them in different places.
Key:
galectin-3C [1] = target: T1, galectin-3C (Homo sapiens, UniProt P17931); set-up: method as in PMID 20873837; conditions: ITC under sample conditions near-identical to those used for CPMG dispersion experiments; determined previously; cited from earlier work
T1 construct: the carbohydrate-recognition domain of galectin-3 (galectin-3C); made in house

galectin-3C [2] = target: T1, galectin-3C; experiment: 15N CPMG relaxation dispersion of ligand binding kinetics; conditions: for kex, Group 1: Group 1 residues fitted jointly: slow exchange corresponding to ligand binding/unbinding; for kex, Group 2: Group 2 residues fitted jointly: fast conformational exchange independent of ligand binding/unbinding; for Population (relative population of the bound state, pB), Group 1: global fit of Group 1 residues, near-saturated NMR sample
Description: We measured equilibrium exchange between free and ligand-bound states of galectin-3C using ^15N CPMG relaxation dispersion experiments[15] acquired on near-saturated samples at two static magnetic field strengths. […] We analyzed the relaxation dispersion profiles using a two-state exchange model (eqn (1)–(4)).[18,27,28] […] All residues within a given group were then fitted jointly to yield global exchange parameters, kex and p, and residue-specific ΔδCPMG (ESI, ^† Table S1 lists all residues included in the fit for the two groups of each complex together with the fitted parameters). In the following, we focus on the exchange related to ligand binding and release.
In the present case, we determined all exchange parameters directly from the relaxation dispersion data. […] This requires that the ligand and protein concentrations are measured accurately, Kd is known from previous experiments, and the NMR spectra of the free and bound states are available; these requirements are easily met in most cases. While the amplitude and shape of the relaxation dispersion profile depends intricately on the populations, rates, and chemical shift difference, it may be expected that off-rates can be determined for systems with dissociation constants in the range of 0.1 μM to 1 mM.
^15N-Labeled galectin-3C samples were prepared by extensive dialysis (Slide-A-Lyzer MINI Dialysis, ThermoScientific) against 5 mM 4-(2-hydroxyethyl)-1-piperazinethanesulfonic acid (HEPES) buffer to remove all lactose, followed by centrifugation at 14 000 rpm for 5 minutes to remove any aggregates. The protein concentration was determined by UV absorption at 280 nm, as described before.[33] […] Ligand–galectin-3C complexes were prepared by titrating freshly sonicated stock solutions of the ligands into apo galectin-3C samples while monitoring the galectin-3C chemical shifts in the ^15N heteronuclear single-quantum correlation (HSQC) spectrum. At the end of each titration, the total amount of added DMSO in the L2 and L3 samples was 2% (v/v).
Relaxation-compensated CPMG relaxation dispersion experiments[15] were performed using the constant-time approach[34] covering 18–24 different refocusing frequencies, νcp. An equilibration period of 5 ms was added prior to the CPMG refocusing pulse train to ensure that the initial magnetizations reflect the relative populations of the exchanging states.[35] […] Spectra were processed using NMRPipe.[37] The processing protocol involved a solvent filter, cosine-squared apodization functions, zero filling to twice the number of increments in all dimensions, and a polynomial baseline correction in the ^1H dimension. Relaxation rates were extracted using PINT, which employs line-shape fitting to resolve overlapped peaks.[38] Peak intensities were evaluated using a weighted sum of Lorentzian and Gaussian line shapes. Standard deviations were determined by propagating the errors of intensities estimated from the baseplane noise. Error estimates are reported as one standard deviation.
The relaxation dispersion data were analyzed using CPMGfit v2.22, an in-house Matlab program.

[3] = k on is determined from Kd and koff (kon = koff/Kd)
[4] = koff = kex(1 − pB), 15N CPMG relaxation dispersion, 301 K, near-saturated samples

T1 sequence (P17931 118-248 limits assumed): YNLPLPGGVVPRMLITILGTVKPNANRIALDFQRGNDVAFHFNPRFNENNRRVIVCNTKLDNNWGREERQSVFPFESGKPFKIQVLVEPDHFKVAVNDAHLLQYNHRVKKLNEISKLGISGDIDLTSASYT

| kex, Group 1 (galectin-3C [2]) [s⁻¹] | kex, Group 2 (galectin-3C [2]) [s⁻¹] | Population (relative population of the bound state, pB), Group 1 (galectin-3C [2]) | kon (galectin-3C [2]; [3]) | koff (galectin-3C [2]; [4]) [s⁻¹] | kon (galectin-3C [2]; k on is determined from Kd and koff (kon = koff/Kd), read-out: k on) [M⁻¹ s⁻¹] | koff (galectin-3C [2]; koff = kex(1 − pB), 15N CPMG relaxation dispersion, 301 K, near-saturated samples, read-out: k off) [s⁻¹] | Compound | Kd (galectin-3C [1]) [µM] | koff (galectin-3C [2]) [s⁻¹] | kon (galectin-3C [2]) [M⁻¹ s⁻¹] |
| --- | --- | --- | --- | --- | --- | --- | --- | --- | --- | --- |
| 123 ± 20 | 4110 ± 760 | 0.93–0.94 and 0.94 ± 0.01 | 2.4 ± 0.4 10^6 M^−1 s^−1 | 8 ± 1 | – | – | 3′-(4-methoxy-2,3,5,6-tetrafluorobenzamido)-N-acetyllactosamine [Ligand L3] | 3.3 ± 0.1 | – | – |
| 385 ± 126 | 5370 ± 850 | 0.93–0.94 and 0.93 ± 0.04 | 1.6 ± 0.5 10^6 M^−1 s^−1 | 28 ± 9 | – | – | 3′-benzamido-N-acetyllactosamine [Ligand L2] | 18.2 ± 0.2 | – | – |

The next lines start with the compound.

| Compound | kex, Group 1 (galectin-3C [2]) [s⁻¹] | kex, Group 2 (galectin-3C [2]) [s⁻¹] | Population (relative population of the bound state, pB), Group 1 (galectin-3C [2]) | kon (galectin-3C [2]; [3]) | koff (galectin-3C [2]; [4]) [s⁻¹] | kon (galectin-3C [2]; k on is determined from Kd and koff (kon = koff/Kd), read-out: k on) [M⁻¹ s⁻¹] | koff (galectin-3C [2]; koff = kex(1 − pB), 15N CPMG relaxation dispersion, 301 K, near-saturated samples, read-out: k off) [s⁻¹] | Kd (galectin-3C [1]) [µM] | koff (galectin-3C [2]) [s⁻¹] | kon (galectin-3C [2]) [M⁻¹ s⁻¹] |
| --- | --- | --- | --- | --- | --- | --- | --- | --- | --- | --- |
| OC[C@H]1O[C@@H](S[C@@H]2O[C@H](CO)[C@@H](O)[C@H](O)[C@H]2O)[C@H](O)[C@@H](n2cc(-c3cccc(F)c3)nn2)[C@H]1O [mL4, meta-fluoro-phenyltriazolyl-galactosylthioglucoside] | 808 ± 55 | 4804 ± 448 | – | – | – | – | – | – | 8 ± 1 | 3.9e+06 ± 700000 |
| OC[C@H]1O[C@@H](S[C@@H]2O[C@H](CO)[C@@H](O)[C@H](O)[C@H]2O)[C@H](O)[C@@H](n2cc(-c3ccccc3F)nn2)[C@H]1O [oL4, ortho-fluoro-phenyltriazolyl-galactosylthioglucoside] | 1210 ± 209 | 15800 ± 386 | 0.97 ± 0.01 | – | – | 4.4e+06 ± 1.1e+06 | 32 ± 5 | – | – | – |
| OC[C@H]1O[C@@H](S[C@@H]2O[C@H](CO)[C@@H](O)[C@H](O)[C@H]2O)[C@H](O)[C@@H](n2cc(-c3ccc(F)cc3)nn2)[C@H]1O [pL4, para-fluoro-phenyltriazolyl-galactosylthioglucoside] | 859 ± 115 | 8386 ± 691 | 0.99 ± 0.01 | – | – | – | – | 2.5 ± 0.3 | 13 ± 1 | 5.2e+06 ± 800000 |

Reference: article PMC8341105, “Mapping the energy landscape of protein–ligand binding via linear free energy relationships determined by protein NMR relaxation dispersion” (RSC Chemical Biology, 2020)
